Measured values as given in patent US20050086714A1, “Eucalyptus transformation method” (AGRIGENESIS BIOSCIENCES LIMITED, priority 2003, published 2005).

How the values were obtained:
Assay type in all cases: cell-based, Eucalyptus grandis
[1] = system: wild type internode explants of E. grandis clone 8 or C101; test: Effect of kanamycin level on shoot regeneration from wild type explants
Experimental: A range of kanamycin concentrations (0, 5, 10, 15, 20, 30, 40 and 50 mg/l) were then tested in four experiments to determine the minimum level of kanamycin for inhibiting regeneration from the wild type internode explants (Table 5).
Fifty internode explants of the E. grandis clone 8 or C101 were cultured on each of the eight media consisting of EuCo14 supplemented with kanamycin at eight different concentrations, namely 0, 5, 10, 15, 20, 30, 40 and 50 mg/l. […] An excessive level of kanamycin kills non-transformed cells in the explant early in the selection stages. This will reduce the regeneration from transformed cells which would be surrounded by these dead non-transformed cells.

[2] = system: internode explants of Eucalyptus clone C101 co-cultivated with LBA4404 containing pART69; test: Effect of kanamycin level on shoot regeneration from co-cultivated explants, Exp I
Experimental: (§1) Internode segment explants were prepared as described in Example 2 above. The explants were placed on a co-cultivation medium in a sideways orientation. The co-cultivation medium was usually EuCo19 (Table 2), although a similar medium could be employed. EuCo19 was based on the regeneration medium EuCo14, supplemented with 100 μM of acetosyringone. In addition, EuCo19 was solidified with gelrite while EuCo14 was solidified with agar. After 50 internode explants were placed on one medium plate, 1-2 μl of Agrobacterium cells were applied to each internode. The plate was then sealed and incubated at 22° C. under low intensity light (300 lux) for three days.
(§2) After 3 days of co-cultivation, the explants were transferred to regeneration/selection medium containing 20-50 mg/l kanamycin and 250 mg/l timentin. In a number of experiments, 10-30 explants from each treatment were taken from the selection medium at day 4 on the medium and tested for transient transgene expression using a GUS staining procedure described in Example 3.6 below.
(§3) In a follow-up experiment, 425 internode explants of the E. grandis clone C101 were co-cultivated with LBA4404 containing the binary vector pART69 and then transferred to selection media containing five different concentrations of kanamycin. The regeneration efficiencies were 100%, 17%, 8%, 3% and 1% from kanamycin concentrations of 0, 20, 30, 40 and 50 mg/l, respectively.

[3] = system: co-cultivated internode explants of Eucalyptus clone Eg8; test: Effect of kanamycin level on shoot regeneration from co-cultivated explants, Exp II
Experimental: as §1, §2, §3

NC[C@H]1O[C@H](O[C@H]2[C@H](O)[C@@H](O[C@H]3O[C@H](CO)[C@@H](O)[C@H](N)[C@H]3O)[C@H](N)C[C@@H]2N)[C@H](O)[C@@H](O)[C@@H]1O [Kanamycin, kanamycin]
Regeneration Rate ([1]; kanamycin 5 mg/L in EuCo14, Exp 3): 2% | Regeneration Rate ([1]; kanamycin 5 mg/L in EuCo14, Exp 4): 10% | Regeneration Rate ([1]; kanamycin 10 mg/L in EuCo14, Exp 3): 0% | Regeneration Rate ([1]; kanamycin 10 mg/L in EuCo14, Exp 4): 0% | Regeneration Rate ([1]; kanamycin 15 mg/L in EuCo14, Exp 3): 0% | Regeneration Rate ([1]; kanamycin 15 mg/L in EuCo14, Exp 4): 0% | Regeneration Rate ([1]; kanamycin 20 mg/L in EuCo14, Exp 1): 0% | Regeneration Rate ([1]; kanamycin 20 mg/L in EuCo14, Exp 2): 4% | Regeneration Rate ([1]; kanamycin 30 mg/L in EuCo14, Exp 1): 0% | Regeneration Rate ([1]; kanamycin 30 mg/L in EuCo14, Exp 2): 0% | Regeneration Rate ([1]; kanamycin 40 mg/L in EuCo14, Exp 1): 0% | Regeneration Rate ([1]; kanamycin 40 mg/L in EuCo14, Exp 2): 0% | Regeneration Rate ([1]; kanamycin 50 mg/L in EuCo14, Exp 1): 0% | Regeneration Rate ([1]; kanamycin 50 mg/L in EuCo14, Exp 2): 0% | Regeneration Rate ([2]; kanamycin 20 mg/l): 17% | Regeneration Rate ([2]; kanamycin 20 mg/l, listed as kanamycin): 17% | Regeneration Rate ([2]; kanamycin 30 mg/l): 8% | Regeneration Rate ([2]; kanamycin 30 mg/l, listed as kanamycin): 8% | Regeneration Rate ([2]; kanamycin 40 mg/l): 3% | Regeneration Rate ([2]; kanamycin 40 mg/l, listed as kanamycin): 3% | Regeneration Rate ([2]; kanamycin 50 mg/l): 1% | Regeneration Rate ([2]; kanamycin 50 mg/l, listed as kanamycin): 1% | Regeneration Rate ([3]; kanamycin 20 mg/l): 29% | Regeneration Rate ([3]; kanamycin 30 mg/l): 12% | Regeneration Rate ([3]; kanamycin 40 mg/l): 6% | Regeneration Rate ([3]; kanamycin 50 mg/l): 4%
